According to US20120021434A1, “METHOD FOR TREATING B CELL REGULATED AUTOIMMUNE DISORDERS” (Synta Pharmaceuticals Corp., priority 2005, published 2012):

Key:
Format in all cases: cell-based
[1] = test system: IκBα; experiment: Inducible degradation of IκBα (Western blot and FACS); conditions: IFN-γ/LPS or IFN-γ/SAC, 500 nM, 30 min and 2 hrs
Method: IκB degradation is one of the steps in the signaling pathway of NF-κB dependent genes. The activity of Compound 50 in inducible degradation of IκBα and IκBβ was investigated in THP-1 cells using Western blot and FACS analysis. […] Similar results were observed from the Compound 50 pre-treatment samples in which Compound 50 was added 30 min before stimulation.

[2] = test system: p105/p50; experiment: LPS/IFNγ-induced phosphorylation of p105/p50 in THP1 cells (immunoblot); conditions: THP1, 100 nM, residues Ser-927 and Ser-933
Method: In this study, we examined the effect of Compound 50 on LPS-induced phosphorylation of the NF-κB members p65 and p105/p50. THP1 monocytic cells were stimulated with IFNγ plus LPS in the presence or absence of 100 nM Compound 50 (30 min, 1 h and 3 h) and whole-cell extracts were immunoblotted using anti-phospho p65 and p105/p50 antibodies to detect the phosphorylated forms of these proteins. […] LPS/IFNγ induced phosphorylation of p65 as early as 30 minutes on residues Ser-276, Ser-468 and […]. Compound 50 had no effect on LPS/IFNγ induced phosphorylation at these sites. […] LPS/IFNγ induced phosphorylation of p105 as early as 30 minutes on residues Ser-927 and Ser-933. Compound 50 had no effect on LPS/IFNγ induced phosphorylation at these sites.

[3] = test system: p50; experiment: Western blot of THP-1 nuclear extracts: p50; conditions: IFN-γ plus LPS or IFN-γ plus SAC, remained above non-stimulated levels
Method: The THP-1 cell, Jurkat cell and RAW264.7 cell line were obtained from American Type Culture Collection (Manassas, Va.). The THP-1 Jurkat cells were cultured in RPMI 1640 (ATCC, Manassas, Va.), supplemented with 10% FCS (ATCC, Manassas, Va.), and 1% penicillin/Streptomycin (Gibco-BRL, New York, N.Y.). The RAW264.7 cells were cultured in DMEM (ATCC, Manassas, Va.) supplemented with 10% FCS (ATCC, Manassas, Va.), and 1% penicillin/Streptomycin (Gibco-BRL, New York, N.Y.). The cells were stimulated with human or murine recombinant IFNγ (100 ng/ml) for 10 h followed by LPS (1 μg/ml) or SAC (0.025%) CpG ([…]) in the presence or absence of Compound 50 at different concentrations for an additional incubation.
THP-1 cells were suspended in 20 volumes of buffer A containing 10 mM KCl, 10 mM HEPES (pH 7.9), 1 mM MgCl2, 1 mM dithiothreitol (DTT), 0.1% Nonidet p40 (NP-40), and 0.5 mM phenylmethylsulfonyl fluoride (PMSF) and homogenized and centrifuged at 10,000 rpm at 4C afor 5 min. […]
Of the transcription factors that have been analyzed, two factors, ICSBP and c-Rel, seem to be affected by Compound 4/Compound 50 treatment. […]

SMILES: Cc1cccc(/C=N/Nc2cc(N3CCOCC3)nc(OCCc3ccccn3)n2)c1 [Compound 50, N-(3-Methyl-benzylidene)-N′-[6-morpholin-4-yl-2-(2-pyridin-2-yl-ethoxy)-pyrimidin-4-yl]-hydrazine]
- amount of IκBα in the cytoplasm, with vs without compound [1]: no significant difference
- LPS/IFNγ induced phosphorylation of p105 [2]: no effect
- nuclear p50 levels [3]: decreased slightly
